{"source": "patent US7718385B2", "about": "“Bioactivation of alkylating agents for cancer treatment” (priority 2003, dated 2010)", "origin": "cited, not measured here", "key": {"[1]": {"test_system": "K-562", "conditions": "K-562, Leukemia, cited from earlier work"}, "[2]": {"test_system": "SK-MEL-28", "conditions": "SK-MEL-28, Melanoma, cited from earlier work"}, "[3]": {"test_system": "HCT-116", "conditions": "HCT-116, Colon, cited from earlier work"}, "[4]": {"test_system": "HS 578T", "conditions": "cited from earlier work"}, "[5]": {"test_system": "NCI-H226", "conditions": "NCI-H226, Non-Small Cell Lung, cited from earlier work"}, "[6]": {"test_system": "EKVX", "conditions": "cited from earlier work"}, "[7]": {"test_system": "UO-31", "conditions": "UO-31, Renal; cited from earlier work"}, "[8]": {"test_system": "A549/ATCC", "conditions": "cited from earlier work"}, "[9]": {"test_system": "CAKI-1", "conditions": "CAKI-1, Renal, cited from earlier work"}, "[10]": {"test_system": "SNB-75", "conditions": "SNB-75, Central Nervous System, cited from earlier work"}, "[11]": {"test_system": "SK-OV-3", "conditions": "SK-OV-3, Ovarian, cited from earlier work"}, "[12]": {"test_system": "MOLT-4", "conditions": "MOLT-4, Leukemia, cited from earlier work"}, "[13]": {"test_system": "TK-10", "conditions": "TK-10, Renal, cited from earlier work"}, "[14]": {"test_system": "IGROVI", "conditions": "cited from earlier work"}, "[15]": {"test_system": "MDA-MB 435", "conditions": "MDA-MB 435, Breast, cited from earlier work"}, "[16]": {"test_system": "786-0", "conditions": "786-0, Renal, cited from earlier work"}, "[17]": {"test_system": "HL-60(TB)", "conditions": "cited from earlier work"}, "[18]": {"test_system": "RPMI-8226", "conditions": "RPMI-8226, Leukemia, cited from earlier work"}, "[19]": {"test_system": "HCT-15", "conditions": "HCT-15, Colon, cited from earlier work"}, "[20]": {"test_system": "HT29", "conditions": "HT29, Colon, cited from earlier work"}, "[21]": {"test_system": "NCI-H522", "conditions": "NCI-H522, Non-Small Cell Lung, cited from earlier work"}, "[22]": {"conditions": "read-out: LC50, Non-Small Cell Lung"}}, "data": [{"compound": "CC1=C(CO)C2=C(C)C3(CC3)[C@@](C)(O)C(=O)C2=C1", "note": "[Irofulven, 6-hydroxymethylacylfulvene]", "values": [{"measurement": "GI50", "setting": "[1]", "value": 3160, "unit": "nM"}, {"measurement": "TGI", "setting": "[1]", "value": "1.00E−04"}, {"measurement": "log(GI50)", "setting": "[1]", "value": "−5.5"}, {"measurement": "log(TGI)", "setting": "[1]", "value": "−4"}, {"measurement": "CC50", "setting": "[1]; read-out: LC50", "value": "≥ 100000", "unit": "nM"}, {"measurement": "GI50", "setting": "[2]", "value": 631, "unit": "nM"}, {"measurement": "TGI", "setting": "[2]", "value": "1.58E−06"}, {"measurement": "log(GI50)", "setting": "[2]", "value": "−6.2"}, {"measurement": "log(LC50)", "setting": "[2]", "value": "−4.7"}, {"measurement": "log(TGI)", "setting": "[2]", "value": "−5.8"}, {"measurement": "CC50", "setting": "[2]; read-out: LC50", "value": 20000, "unit": "nM"}, {"measurement": "GI50", "setting": "[3]", "value": 200, "unit": "nM"}, {"measurement": "TGI", "setting": "[3]", "value": "5.01E−07"}, {"measurement": "log(GI50)", "setting": "[3]", "value": "−6.7"}, {"measurement": "log(LC50)", "setting": "[3]", "value": "−4.5"}, {"measurement": "log(TGI)", "setting": "[3]", "value": "−6.3"}, {"measurement": "CC50", "setting": "[3]; read-out: LC50", "value": 31600, "unit": "nM"}, {"measurement": "GI50", "setting": "[4]; Breast", "value": 316, "unit": "nM"}, {"measurement": "TGI", "setting": "[4]; Breast", "value": "1.58E−06"}, {"measurement": "log(GI50)", "setting": "[4]; Breast", "value": "−6.5"}, {"measurement": "log(LC50)", "setting": "[4]; Breast", "value": "−4.7"}, {"measurement": "log(TGI)", "setting": "[4]; Breast", "value": "−5.8"}, {"measurement": "CC50", "setting": "[4]; read-out: LC50, Breast", "value": 20000, "unit": "nM"}, {"measurement": "GI50", "setting": "[5]", "value": 200, "unit": "nM"}, {"measurement": "TGI", "setting": "[5]", "value": "5.01E−07"}, {"measurement": "log(GI50)", "setting": "[5]", "value": "−6.7"}, {"measurement": "log(LC50)", "setting": "[5]", "value": "−5.2"}, {"measurement": "log(TGI)", "setting": "[5]", "value": "−6.3"}, {"measurement": "CC50", "setting": "[5]; read-out: LC50", "value": 6310, "unit": "nM"}, {"measurement": "GI50", "setting": "[6]; Non-Small Cell Lung", "value": 200, "unit": "nM"}, {"measurement": "TGI", "setting": "[6]; Non-Small Cell Lung", "value": "5.01E−07"}, {"measurement": "log(GI50)", "setting": "[6]; Non-Small Cell Lung", "value": "−6.7"}, {"measurement": "log(LC50)", "setting": "[6]; Non-Small Cell Lung", "value": "−5.4"}, {"measurement": "log(TGI)", "setting": "[6]; Non-Small Cell Lung", "value": "−6.3"}, {"measurement": "CC50", "setting": "[6]; [22]", "value": 3980, "unit": "nM"}, {"measurement": "GI50", "setting": "[7]", "value": 200, "unit": "nM"}, {"measurement": "TGI", "setting": "[7]", "value": "5.01E−07"}, {"measurement": "log(GI50)", "setting": "[7]", "value": "−6.7"}, {"measurement": "log(TGI)", "setting": "[7]", "value": "−6.3"}, {"measurement": "GI50", "setting": "[8]; Non-Small Cell Lung", "value": 126, "unit": "nM"}, {"measurement": "TGI", "setting": "[8]; Non-Small Cell Lung", "value": "1.58E−06"}, {"measurement": "log(GI50)", "setting": "[8]; Non-Small Cell Lung", "value": "−6.9"}, {"measurement": "log(TGI)", "setting": "[8]; Non-Small Cell Lung", "value": "−5.8"}, {"measurement": "CC50", "setting": "[8]; [22]", "value": "≥ 100000", "unit": "nM"}, {"measurement": "GI50", "setting": "[9]", "value": 251, "unit": "nM"}, {"measurement": "TGI", "setting": "[9]", "value": "7.94E−07"}, {"measurement": "log(GI50)", "setting": "[9]", "value": "−6.6"}, {"measurement": "log(LC50)", "setting": "[9]", "value": "−4.3"}, {"measurement": "log(TGI)", "setting": "[9]", "value": "−6.1"}, {"measurement": "CC50", "setting": "[9]; read-out: LC50", "value": 50100, "unit": "nM"}, {"measurement": "GI50", "setting": "[10]", "value": 200, "unit": "nM"}, {"measurement": "TGI", "setting": "[10]", "value": "5.01E−07"}, {"measurement": "log(GI50)", "setting": "[10]", "value": "−6.7"}, {"measurement": "log(LC50)", "setting": "[10]", "value": "−5.7"}, {"measurement": "log(TGI)", "setting": "[10]", "value": "−6.3"}, {"measurement": "CC50", "setting": "[10]; read-out: LC50", "value": 2000, "unit": "nM"}, {"measurement": "GI50", "setting": "[11]", "value": 251, "unit": "nM"}, {"measurement": "TGI", "setting": "[11]", "value": "1.00E−06"}, {"measurement": "log(GI50)", "setting": "[11]", "value": "−6.6"}, {"measurement": "log(LC50)", "setting": "[11]", "value": "−5"}, {"measurement": "log(TGI)", "setting": "[11]", "value": "−6"}, {"measurement": "CC50", "setting": "[11]; read-out: LC50", "value": 10000, "unit": "nM"}, {"measurement": "GI50", "setting": "[12]", "value": 794, "unit": "nM"}, {"measurement": "TGI", "setting": "[12]", "value": "2.00E−05"}, {"measurement": "log(GI50)", "setting": "[12]", "value": "−6.1"}, {"measurement": "log(TGI)", "setting": "[12]", "value": "−4.7"}, {"measurement": "CC50", "setting": "[12]; read-out: LC50", "value": "≥ 100000", "unit": "nM"}, {"measurement": "GI50", "setting": "[13]", "value": 251, "unit": "nM"}, {"measurement": "TGI", "setting": "[13]", "value": "1.26E−06"}, {"measurement": "log(GI50)", "setting": "[13]", "value": "−6.6"}, {"measurement": "log(TGI)", "setting": "[13]", "value": "−5.9"}, {"measurement": "CC50", "setting": "[13]; read-out: LC50", "value": "≥ 100000", "unit": "nM"}, {"measurement": "GI50", "setting": "[14]; Ovarian", "value": 158, "unit": "nM"}, {"measurement": "TGI", "setting": "[14]; Ovarian", "value": "5.01E−07"}, {"measurement": "log(GI50)", "setting": "[14]; Ovarian", "value": "−6.8"}, {"measurement": "log(LC50)", "setting": "[14]; Ovarian", "value": "−5.2"}, {"measurement": "log(TGI)", "setting": "[14]; Ovarian", "value": "−6.3"}, {"measurement": "CC50", "setting": "[14]; read-out: LC50, Ovarian", "value": 6310, "unit": "nM"}, {"measurement": "GI50", "setting": "[15]", "value": 1580, "unit": "nM"}, {"measurement": "TGI", "setting": "[15]", "value": "6.31E−06"}, {"measurement": "log(GI50)", "setting": "[15]", "value": "−5.8"}, {"measurement": "log(LC50)", "setting": "[15]", "value": "−4.4"}, {"measurement": "log(TGI)", "setting": "[15]", "value": "−5.2"}, {"measurement": "CC50", "setting": "[15]; read-out: LC50", "value": 39800, "unit": "nM"}, {"measurement": "GI50", "setting": "[16]", "value": 200, "unit": "nM"}, {"measurement": "TGI", "setting": "[16]", "value": "5.01E−07"}, {"measurement": "log(GI50)", "setting": "[16]", "value": "−6.7"}, {"measurement": "log(LC50)", "setting": "[16]", "value": "−5.7"}, {"measurement": "log(TGI)", "setting": "[16]", "value": "−6.3"}, {"measurement": "CC50", "setting": "[16]; read-out: LC50", "value": 2000, "unit": "nM"}, {"measurement": "GI50", "setting": "[17]; Leukemia", "value": 251, "unit": "nM"}, {"measurement": "TGI", "setting": "[17]; Leukemia", "value": "2.00E−06"}, {"measurement": "log(GI50)", "setting": "[17]; Leukemia", "value": "−6.6"}, {"measurement": "log(TGI)", "setting": "[17]; Leukemia", "value": "−5.7"}, {"measurement": "CC50", "setting": "[17]; read-out: LC50, Leukemia", "value": "≥ 100000", "unit": "nM"}, {"measurement": "GI50", "setting": "[18]", "value": 31600, "unit": "nM"}, {"measurement": "TGI", "setting": "[18]", "value": "7.94E−05"}, {"measurement": "log(GI50)", "setting": "[18]", "value": "−4.5"}, {"measurement": "log(TGI)", "setting": "[18]", "value": "−4.1"}, {"measurement": "CC50", "setting": "[18]; read-out: LC50", "value": "≥ 100000", "unit": "nM"}, {"measurement": "GI50", "setting": "[19]", "value": 316, "unit": "nM"}, {"measurement": "TGI", "setting": "[19]", "value": "5.01E−06"}, {"measurement": "log(GI50)", "setting": "[19]", "value": "−6.5"}, {"measurement": "log(TGI)", "setting": "[19]", "value": "−5.3"}, {"measurement": "CC50", "setting": "[19]; read-out: LC50", "value": "≥ 100000", "unit": "nM"}, {"measurement": "GI50", "setting": "[20]", "value": 251, "unit": "nM"}, {"measurement": "TGI", "setting": "[20]", "value": "1.26E−06"}, {"measurement": "log(GI50)", "setting": "[20]", "value": "−6.6"}, {"measurement": "log(TGI)", "setting": "[20]", "value": "−5.9"}, {"measurement": "CC50", "setting": "[20]; read-out: LC50", "value": "≥ 100000", "unit": "nM"}, {"measurement": "GI50", "setting": "[21]", "value": 158, "unit": "nM"}, {"measurement": "TGI", "setting": "[21]", "value": "6.31E−07"}, {"measurement": "log(GI50)", "setting": "[21]", "value": "−6.8"}, {"measurement": "log(LC50)", "setting": "[21]", "value": "−5.1"}, {"measurement": "log(TGI)", "setting": "[21]", "value": "−6.2"}, {"measurement": "CC50", "setting": "[21]; read-out: LC50", "value": 7940, "unit": "nM"}]}]}
